According to patent US20230348477A1, “ORGANIC COMPOUND, LIGHT-EMITTING DEVICE, LIGHT-EMITTING APPARATUS, AND ELECTRONIC DEVICE” (SEMICONDUCTOR ENERGY LABORATORY CO., LTD., priority 2022, published 2023):
≈ marks a conversion by molar mass, not a printed value. Entries after “also recorded” stand apart in the source; their conditions may differ.

Columns and labels:
[1] = Solubility test in water by visual inspection; format: physicochemical; settings: room temperature, one atmosphere; for solubility in water, result in words (visual inspection): about 1.2 mg sample, water added in 10 mL steps (tip compounds)
Protocol: (§1) In this example, the organic compounds synthesized in Examples 1 and 2 are used to explain the solubility of the organic compound of one embodiment of the present invention. The solubility tests of this example were performed at room temperature (RT) at one atmosphere.
(§2) Into a 110 mL sample bottle, 1.21 mg of 2,6tip2Py was put and 10 mL of water was added thereto. This mixture was irradiated with ultrasonic waves for one minute. A precipitated white powder was found by visual inspection for an insoluble residue. After further addition of 10 mL of water and one-minute ultrasonic wave irradiation, a precipitated white powder was found by visual inspection. This procedure was repeated until the dissolution was confirmed by visual inspection.
Into a 110 mL sample bottle, 1.23 mg of 2,7tip2SF was put and 10 mL of water was added thereto. This mixture was irradiated with ultrasonic waves for one minute. A precipitated white powder was found by visual inspection for an insoluble residue. After further addition of 10 mL of water and one-minute ultrasonic wave irradiation, a precipitated pale yellow powder was found by visual inspection. This procedure was repeated until the dissolution was confirmed by visual inspection.
Into a 5 mL sample bottle, 50.2 mg of 1,1′-pyridine-2,6-diyl-bis(1,3,4,6,7,8-hexahydro-2H-pyrimido[1,2-a]pyrimidine) (abbreviation: hpp2Py) having a structure where a hydropyrimidine ring is substituted for the imidazole ring of the guanidine skeleton in 2,6tip2Py, which is an organic compound of one embodiment of the present invention, was put, and 1.0 mL of water was added thereto. The dissolution was found by visual inspection for an insoluble residue.
as §2, with “20” for “110”, “1.16” for “1.21”, “1,1′-(9,9′-spirobi[9H-fluorene]-2,7-diyl)bis(1,3,4,6,7,8-hexahydro-2H-pyrimido[1,2-a]pyrimidine) (abbreviation: 2,7hpp2SF) having a structure where a hydropyrimidine ring is substituted for the imidazole ring of the guanidine skeleton in 2,7tip2SF, which is an organic compound of one embodiment of the present invention,” for “2,6tip2Py”, “put,” for “put”, “0.5” for “10”
The precipitated white powder was found until the total amount of water reached 3.0 mL. After further addition of 0.5 mL of water and ultrasonic wave irradiation, no precipitated white powder was found.

[2] = Solubility test in water by LC/MS; format: physicochemical; settings: room temperature, one atmosphere; for solubility in water, result in words (LC/MS): 1 mg in 1 mL water
Protocol: as §1
In the LC-MS analysis, liquid chromatography (LC) separation was carried out with ACQUITY UPLC manufactured by Waters Corporation, and MS analysis (mass spectrometry) was carried out with Xevo G2 Tof MS manufactured by Waters Corporation. Acquity UPLC BEH C8 (2.1 × 100 mm, 1.7 µm) was used as a column for the LC separation. Acetonitrile was used for Mobile Phase A and a 0.1 % aqueous solution of formic acid was used for Mobile Phase B. The amount of injection of the sample was 5.0 µL. Note that in the analysis, the wavelength of a photodiode array detector was set to 270 nm.
Into a 5 mL sample bottle, 1 mg of 2,6tip2Py was put and 1 mL of chloroform was added thereto. This mixture was irradiated with ultrasonic waves for five minutes. After it was confirmed that the solid was completely dissolved, this solution was diluted by five times with acetonitrile, whereby the concentration of the solution was adjusted to 200 mg/L. This solution was diluted with acetonitrile, whereby a solution with a concentration of 40 mg/L, a solution with a concentration of 20 mg/L, and a solution with a concentration of 10 mg/L were prepared. The prepared solutions were subjected to LC/MS, and the peak area values derived from 2,6tip2Py, which were obtained at the respective solution concentrations, were used to form calibration curves.
Into a 5 mL sample bottle, 1 mg of 2,6tip2Py was put and 1 mL of water was added thereto. This mixture was irradiated with ultrasonic waves for five minutes. This mixture was filtered through a membrane filter to remove the solid, and the resulting filtrate was diluted by five times with acetonitrile. The obtained solution was subjected to LC/MS.
Into a 5 mL sample bottle, 1 mg of 2,7tip2SF was put and 1 mL of water was added thereto. This mixture was irradiated with ultrasonic waves for five minutes. […]

Row | SMILES | solubility in water, result in words (visual inspection) [1] | solubility in water, result in words (LC/MS) [2] | solubility at 5 min ([2]; thermodynamic from solid, filtrate quantified by LC/MS against calibration curve, read-out: solubility in 1 mL of water) | weight dissolved in 1.0 mL of water ([1]; ultrasonic irradiation, visual inspection, per 1.0 mL of water)
1 | c1cc(N2CCCn3ccnc32)nc(N2CCCn3ccnc32)c1 [2,6tip2Py, 8,8′-pyridine-2,6-diyl-bis(5,6,7,8-tetrahydroimidazo[1,2-a]pyrimidine)] | precipitated white powder was found until the total amount of water reached 100 mL | very low solubility in water | 18 µg/mL (≈ 56 µM) | 
2 | c1ccc2c(c1)-c1ccccc1C21c2cc(N3CCCN4CCCN=C43)ccc2-c2ccc(N3CCCN4CCCN=C43)cc21 [2,7hpp2SF, 1,1′-(9,9′-spirobi[9H-fluorene]-2,7-diyl)bis(1,3,4,6,7,8-hexahydro-2H-pyrimido[1,2-a]pyrimidine)] | high solubility in water |  |  | 
3 | c1ccc2c(c1)-c1ccccc1C21c2cc(N3CCCn4ccnc43)ccc2-c2ccc(N3CCCn4ccnc43)cc21 [2,7tip2SF, 8,8′-(9,9′-spirobi[9H-fluorene]-2,7-diyl)bls(5,6,7,8-tetrahydrolmidazo[1,2-a]pyrimidine)] | precipitated pale yellow powder was found until the total amount of water reached 100 mL | insoluble in water; also recorded: very low solubility in water |  | 
4 | c1cc(N2CCCN3CCCN=C32)nc(N2CCCN3CCCN=C32)c1 [hpp2Py, 1,1′-pyridine-2,6-diyl-bis(1,3,4,6,7,8-hexahydro-2H-pyrimido[1,2-a]pyrimidine)] | high solubility in water |  |  | greater than or equal to 50.2 mg
